Values after ≈ are worked out from the molar mass of the structure shown.
Assays:
Format in all cases: functional
Bacillus subtilis = experiment: Antibacterial activity against Bacillus subtilis ATCC 9372 after 24 hrs by broth microdilution based CLSI method; settings: ATCC 9372, 24 h
Bacillus pumilus = experiment: Antibacterial activity against Bacillus pumilus CMCC63202 after 24 hrs by broth microdilution based CLSI method; settings: CMCC63202, 24 h
Staphylococcus aureus [1] = experiment: Antibacterial activity against Staphylococcus aureus ATCC 25923 after 24 hrs by broth microdilution based CLSI method; settings: ATCC 25923, 24 h
Staphylococcus aureus [2] = experiment: Antibacterial activity against methicillin-resistant Staphylococcus aureus ATCC 43300 after 24 hrs by broth microdilution based CLSI method; settings: ATCC 43300, 24 h
Staphylococcus aureus [3] = experiment: Antibacterial activity against clinical isolate of penicillin-resistant Staphylococcus aureus after 24 hrs by broth microdilution based CLSI method
Escherichia coli = experiment: Antibacterial activity against Escherichia coli ATCC 25922 after 24 hrs by broth microdilution based CLSI method; settings: ATCC 25922, 24 h
Pseudomonas aeruginosa = experiment: Antibacterial activity against Pseudomonas aeruginosa ATCC 27853 after 24 hrs by broth microdilution based CLSI method; settings: ATCC 27853, 24 h

SMILES | MIC (Bacillus subtilis) | MIC (Bacillus pumilus) | MIC (Staphylococcus aureus [1]) | MIC (Staphylococcus aureus [2]) | MIC (Staphylococcus aureus [3]) | MIC (Escherichia coli) | MIC (Pseudomonas aeruginosa)
COc1cc(-c2cc(COc3ccc(F)c(C(N)=O)c3F)on2)cc(OC)c1OC | > 64 µg/mL | > 64 µg/mL | > 64 µg/mL | > 64 µg/mL | > 64 µg/mL | > 64 µg/mL | > 64 µg/mL
NC(=O)c1c(F)ccc(OCc2cc(-c3ccc(Cl)cc3Cl)on2)c1F | 0.5 µg/mL (≈ 1.25 µM) | 8 µg/mL (≈ 20 µM) | > 64 µg/mL | > 64 µg/mL | > 64 µg/mL | > 64 µg/mL | > 64 µg/mL
NC(=O)c1c(F)ccc(OCc2cc(-c3cccc(Cl)c3)on2)c1F | 8 µg/mL (≈ 21.9 µM) | > 64 µg/mL | > 64 µg/mL | > 64 µg/mL | > 64 µg/mL | > 64 µg/mL | > 64 µg/mL
CCCCc1ccc(-c2cc(COc3ccc(F)c(C(N)=O)c3F)no2)cc1 | 0.06 µg/mL (≈ 0.155 µM) | > 64 µg/mL | > 64 µg/mL | > 64 µg/mL | > 64 µg/mL | > 64 µg/mL | > 64 µg/mL
NC(=O)c1c(F)ccc(OCc2cc(-c3cccc(Cl)c3)no2)c1F | 8 µg/mL (≈ 21.9 µM) | > 64 µg/mL | > 64 µg/mL | > 64 µg/mL | > 64 µg/mL | > 64 µg/mL | > 64 µg/mL
N#Cc1ccc(-c2cc(COc3ccc(F)c(C(N)=O)c3F)on2)cc1 | 64 µg/mL (≈ 180 µM) | > 64 µg/mL | > 64 µg/mL | > 64 µg/mL | > 64 µg/mL | > 64 µg/mL | > 64 µg/mL
COc1cccc(-c2cc(COc3ccc(F)c(C(N)=O)c3F)no2)c1 | 64 µg/mL (≈ 178 µM) | > 64 µg/mL | > 64 µg/mL | > 64 µg/mL | > 64 µg/mL | > 64 µg/mL | > 64 µg/mL
COc1ccc(-c2cc(COc3ccc(F)c(C(N)=O)c3F)no2)cc1 | 64 µg/mL (≈ 178 µM) | > 64 µg/mL | > 64 µg/mL | > 64 µg/mL | > 64 µg/mL | > 64 µg/mL | > 64 µg/mL
CCOc1cccc(-c2cc(COc3ccc(F)c(C(N)=O)c3F)on2)c1 | 2 µg/mL (≈ 5.34 µM) | 16 µg/mL (≈ 42.7 µM) | > 64 µg/mL | > 64 µg/mL | > 64 µg/mL | > 64 µg/mL | > 64 µg/mL
CC(C)(C)c1ccc(-c2onc(COc3ccc(F)c(C(N)=O)c3F)c2Br)cc1 | 1 µg/mL (≈ 2.15 µM) | 1 µg/mL (≈ 2.15 µM) | > 64 µg/mL | > 64 µg/mL | > 64 µg/mL | > 64 µg/mL | > 64 µg/mL
NC(=O)c1c(F)ccc(OCc2cc(-c3ccc(Br)cc3)no2)c1F | 1 µg/mL (≈ 2.44 µM) | > 64 µg/mL | > 64 µg/mL | > 64 µg/mL | > 64 µg/mL | > 64 µg/mL | > 64 µg/mL
NC(=O)c1c(F)ccc(OCc2cc(-c3ccccc3)on2)c1F | 64 µg/mL (≈ 194 µM) | > 64 µg/mL | > 64 µg/mL | > 64 µg/mL | > 64 µg/mL | > 64 µg/mL | > 64 µg/mL
CC(C)(C)c1ccc(-c2cc(CCOc3ccc(F)c(C(N)=O)c3F)no2)cc1 | > 64 µg/mL | > 64 µg/mL | > 64 µg/mL | > 64 µg/mL | > 64 µg/mL | > 64 µg/mL | > 64 µg/mL
NC(=O)c1c(F)ccc(OCc2cc(-c3ccccc3)no2)c1F | 64 µg/mL (≈ 194 µM) | > 64 µg/mL | > 64 µg/mL | > 64 µg/mL | > 64 µg/mL | > 64 µg/mL | > 64 µg/mL
COc1cccc(-c2cc(COc3ccc(F)c(C(N)=O)c3F)on2)c1 | 64 µg/mL (≈ 178 µM) | > 64 µg/mL | > 64 µg/mL | > 64 µg/mL | > 64 µg/mL | > 64 µg/mL | > 64 µg/mL
NC(=O)c1c(F)ccc(OCc2cc(-c3ccc(-c4ccccn4)cc3)no2)c1F | 64 µg/mL (≈ 157 µM) | > 64 µg/mL | > 64 µg/mL | > 64 µg/mL | > 64 µg/mL | > 64 µg/mL | > 64 µg/mL
NC(=O)c1c(F)ccc(OCc2cc(-c3ccc(Cl)cc3)no2)c1F | 4 µg/mL (≈ 11 µM) | > 64 µg/mL | > 64 µg/mL | > 64 µg/mL | > 64 µg/mL | > 64 µg/mL | > 64 µg/mL
NC(=O)c1c(F)ccc(OCc2noc(-c3ccc(Cl)cc3)c2Br)c1F | > 64 µg/mL | > 64 µg/mL | > 64 µg/mL | > 64 µg/mL | > 64 µg/mL | > 64 µg/mL | > 64 µg/mL
NC(=O)c1c(F)ccc(OCc2cc(-c3ccc(Cl)cc3Cl)no2)c1F | 0.5 µg/mL (≈ 1.25 µM) | 0.5 µg/mL (≈ 1.25 µM) | 8 µg/mL (≈ 20 µM) | 4 µg/mL (≈ 10 µM) | > 64 µg/mL | > 64 µg/mL | > 64 µg/mL
NC(=O)c1c(F)ccc(OCc2cc(/C=C/c3ccccc3)no2)c1F | 8 µg/mL (≈ 22.5 µM) | > 64 µg/mL | > 64 µg/mL | > 64 µg/mL | > 64 µg/mL | > 64 µg/mL | > 64 µg/mL
CCOc1ccc(-c2cc(COc3ccc(F)c(C(N)=O)c3F)on2)cc1 | 1 µg/mL (≈ 2.67 µM) | > 64 µg/mL | > 64 µg/mL | > 64 µg/mL | > 64 µg/mL | > 64 µg/mL | > 64 µg/mL
COc1ccc(-c2cc(COc3ccc(F)c(C(N)=O)c3F)on2)cc1 | 3 µg/mL (≈ 8.33 µM) | > 64 µg/mL | 64 µg/mL (≈ 178 µM) | 4 µg/mL (≈ 11.1 µM) | > 64 µg/mL | > 64 µg/mL | > 64 µg/mL
CCCOc1cccc(-c2cc(COc3ccc(F)c(C(N)=O)c3F)on2)c1 | 64 µg/mL (≈ 165 µM) | > 64 µg/mL | > 64 µg/mL | > 64 µg/mL | > 64 µg/mL | > 64 µg/mL | > 64 µg/mL
CCCCCc1ccc(-c2cc(COc3ccc(F)c(C(N)=O)c3F)on2)cc1 | 1 µg/mL (≈ 2.5 µM) | > 64 µg/mL | > 64 µg/mL | > 64 µg/mL | > 64 µg/mL | > 64 µg/mL | > 64 µg/mL
NC(=O)c1c(F)ccc(OCc2cc(-c3ccc(F)cc3)no2)c1F | 4 µg/mL (≈ 11.5 µM) | > 64 µg/mL | > 64 µg/mL | > 64 µg/mL | > 64 µg/mL | > 64 µg/mL | > 64 µg/mL
CN(C)c1ccc(-c2cc(COc3ccc(F)c(C(N)=O)c3F)on2)cc1 | > 64 µg/mL | > 64 µg/mL | > 64 µg/mL | > 64 µg/mL | > 64 µg/mL | > 64 µg/mL | > 64 µg/mL
NC(=O)c1c(F)ccc(OCc2cc(-c3ccc(Cl)c(Cl)c3)on2)c1F | > 64 µg/mL | > 64 µg/mL | > 64 µg/mL | > 64 µg/mL | > 64 µg/mL | > 64 µg/mL | > 64 µg/mL
NC(=O)c1c(F)ccc(OCc2cc(-c3ccc(Cl)cc3)on2)c1F | 64 µg/mL (≈ 175 µM) | > 64 µg/mL | > 64 µg/mL | > 64 µg/mL | > 64 µg/mL | > 64 µg/mL | > 64 µg/mL
CCCOc1ccc(-c2cc(COc3ccc(F)c(C(N)=O)c3F)on2)cc1 | 16 µg/mL (≈ 41.2 µM) | > 64 µg/mL | > 64 µg/mL | > 64 µg/mL | > 64 µg/mL | > 64 µg/mL | > 64 µg/mL

Source: ChEMBL document CHEMBL4257566, “Design, synthesis and structure-based optimization of novel isoxazole-containing benzamide derivatives as FtsZ modulators” (Eur J Med Chem, 2018)
